Measured values published in US20040106545A1, “Compounds and methods for modulating cell adhesion” (priority 1996, published 2004).
“Also recorded” adds a separate entry of the source. Positions of bridges follow the written chain, without caps; N, C: chain ends. Residues, ends and D or L forms follow the SMILES beside them.

Tests used:
[1] = test system: A1N4 human breast epithelial cells; assay: Disruption of breast epithelial cell adhesion, E-cadherin staining; format: cell-based; settings: 500 μg/mL, 48 hours
Experimental: A1N4 human breast epithelial cells (kindly provided by Martha Stampfer, Lawrence Berkeley Laboratory, Berkeley, Calif.) were plated on glass coverslips and cultured in F12/DME containing 0.5% FCS and 10 ng/mL EGF for 24 hours. Fresh medium containing the cyclic peptides (final concentration 500 μg/mL media) N—Ac-CHAVC-NH2 (SEQ ID NO:10) or N—Ac-CHGVC-NH2 (SEQ ID NO:11) was then added. Following 24 hours of culture in the presence of the peptides, the medium was removed and fresh medium containing the peptides was added. The cells were fixed 24 hours later with cold methanol and stored in phosphate buffered saline (PBS).
Coverslips were blocked for 1 hour in 3% ovalbumin/PBS and incubated for a further 1 hour in the presence of 1 μg/mL mouse anti-E-cadherin antibody (Zymed, Gaithersburg, Md.). Primary and secondary antibodies were diluted in PBS containing 6% normal goat serum. Following incubation in the primary antibody, coverslips were washed 3 times for 5 minutes each in PBS and incubated for 1 hour with goat anti-mouse conjugated to fluorescein (Kiekegard and Perry, South San Francisco, Calif.) diluted 1:100. Following a further wash in PBS (3×5 minutes) coverslips were mounted in Vectashield (Vector Labs, Burlingame, Calif.) and viewed with a Zeiss infinity corrected microscope.

[2] = test system: Madin Darby canine kidney (MDCK) cells; format: cell-based; settings: for EC50, decrease of electrical resistance across MDCK cell monolayer: 18 hours
Outline: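 MDCK monolayers, grown in DMEM with 5% FCS from 300,000 cells per insert, exposed to modulating agent in medium (e.g., 0.5 mg/ml final for 24 hours). Transepithelial electrical resistance measured as an index of tight junction formation.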

[3] = test system: Human saphenous vein vascular smooth muscle cells; assay: Vascular smooth muscle cell apoptosis and death in aggregates (agarose-coated wells); format: cell-based; settings: 0.5 mg/mL
Experimental: Human saphenous vein vascular smooth muscle cells were explanted from surplus segments of vein from patients undergoing coronary artery bypass surgery. Cells were maintained in Dulbecco's modified essential medium supplemented with […], 2 mmol/L L-glutamine and 10% fetal calf serum and were grown in agarose-coated wells. Under these conditions the cells are unable to attach to the underlying substratum and adhere to one another by cell-cell contacts only, forming aggregates. The percentage of dead cells was assessed by staining with Trypan blue or by fixing the cells and staining with Hoescht (H-33342). Trypan blue stain is absorbed only by non-viable cells when the integrity of the cell membrane is breached (Freshney, R. (1987) Culture of Animal Cells: A Manual of Basic Technique, p. 117, Alan R. Liss, Inc., New York) whereas Hoescht stain enters living cells (Shapiro (1981) Cytometry 2, 143-150).

[4] = test system: Human saphenous vein vascular smooth muscle cells; assay: Vascular smooth muscle cell migration after scrape-wounding; format: cell-based; settings: 1 mg/mL, 24 hours after wounding
Experimental: An illustrative assay for evaluating the modulating of vascular smooth muscle cell migration may be performed as follows (as described in Example 23). Human saphenous vein vascular smooth muscle cells are explanted from surplus segments of vein from patients undergoing coronary artery bypass surgery. Cells are maintained in Dulbecco's modified essential medium supplemented with penicillin, streptomycin, L-glutamine and 10% fetal calf serum and are grown to confluence on glass coverslips in the presence or absence of collagen type I. The cell layer is then subjected to scrape-wounding by drawing a fine cell scraper across the coverslip. Proliferation of the vascular smooth muscle cells is inhibited by addition of 2 mM hydroxyurea to the culture media. […] The migratory capacity of the vascular smooth muscle cells is assessed by measuring the distance of migration into the wound area (outermost 100 μm from the wound) using image analysis software at 24 hours after wounding.
Human saphenous vein vascular smooth muscle cells were explanted from surplus segments of vein from patients undergoing coronary artery bypass surgery. […] The migratory capacity of the vascular smooth muscle cells was assessed by measuring the distance of migration into the wound area (outermost 100 μm from the wound) using image analysis software at 24 hours after wounding.

N-CAM = molecular target: T1, N-CAM (Homo sapiens, UniProt P13591); assay: Neurite outgrowth on N-CAM expressing 3T3 monolayers (Example 2); format: cell-based, mouse; settings: 500 μg/mL
T1 construct: expressed in transfected cells; host or cells: 3T3 fibroblasts (monolayer); mouse post-natal day 3 cerebellar neurons on top
T1 sequence (P13591 20-858, species assumed): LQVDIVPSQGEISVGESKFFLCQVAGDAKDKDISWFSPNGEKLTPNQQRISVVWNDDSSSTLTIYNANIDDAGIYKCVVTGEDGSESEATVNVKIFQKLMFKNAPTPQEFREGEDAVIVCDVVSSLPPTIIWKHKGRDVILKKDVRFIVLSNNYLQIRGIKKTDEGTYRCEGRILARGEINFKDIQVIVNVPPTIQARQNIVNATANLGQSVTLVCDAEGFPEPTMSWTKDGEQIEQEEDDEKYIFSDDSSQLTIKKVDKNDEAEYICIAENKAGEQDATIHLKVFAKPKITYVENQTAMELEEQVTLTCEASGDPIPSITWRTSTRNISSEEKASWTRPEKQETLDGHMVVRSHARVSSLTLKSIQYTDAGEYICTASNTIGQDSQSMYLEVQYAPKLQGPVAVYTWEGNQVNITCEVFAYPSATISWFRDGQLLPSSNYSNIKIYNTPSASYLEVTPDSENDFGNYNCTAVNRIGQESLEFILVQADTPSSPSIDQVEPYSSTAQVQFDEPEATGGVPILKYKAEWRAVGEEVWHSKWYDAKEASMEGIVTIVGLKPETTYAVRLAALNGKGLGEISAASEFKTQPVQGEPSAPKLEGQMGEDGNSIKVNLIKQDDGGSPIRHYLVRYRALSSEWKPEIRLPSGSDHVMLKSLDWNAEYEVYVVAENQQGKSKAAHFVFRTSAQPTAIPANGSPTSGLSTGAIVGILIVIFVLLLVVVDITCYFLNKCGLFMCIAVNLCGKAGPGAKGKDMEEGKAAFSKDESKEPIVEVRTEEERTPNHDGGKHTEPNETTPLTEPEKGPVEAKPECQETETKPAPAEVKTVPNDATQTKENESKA

Compound: CC(=O)N[C@H]1CSSC[C@@H](C(N)=O)NC(=O)[C@H](C(C)C)NC(=O)CNC(=O)[C@H](Cc2c[nH]cn2)NC1=O [N—Ac—CHGVC—NH2, reference compound]
- E-cadherin staining and monolayer of A1N4 cells [1]: displayed E-cadherin staining concentrated at points of cell-cell contact and formed a tightly adherent monolayer

Compound: CC(=O)N[C@H]1CSSC[C@@H](C(N)=O)NC(=O)[C@H](CC(=O)O)NC(=O)[C@H](C(C)C)NC(=O)[C@H](C)NC(=O)[C@H](Cc2c[nH]cn2)NC(=O)[C@H](C)NC1=O [N—Ac—CAHAVDC—NH2, N-Ac-Cys-Ala-His-Ala-Val-Asp-Cys-NH2] (Ac-CAHAVDC-NH2; disulfide 1-7)
- effect on electrical resistance across MDCK cells (in words) [2]: complete abrogation of E-cadherin specific activity
- EC50, decrease of electrical resistance across MDCK cell monolayer [2]: INACTIVE

Compound: CC[C@H](C)[C@@H]1NC(=O)[C@H](CC(=O)O)NC(=O)[C@H](C(C)C)NC(=O)[C@H](C)NC(=O)[C@H](Cc2c[nH]cn2)NC(=O)[C@H](C)NC(=O)[C@@H](NC(C)=O)CSSC[C@@H](C(N)=O)NC1=O (Ac-CAHAVDIC-NH2; disulfide 1-8)
- EC50, decrease of electrical resistance across MDCK cell monolayer [2]: INACTIVE

Compound: CC(=O)N[C@H]1CSSC[C@@H](C(N)=O)NC(=O)[C@H](C(C)C)NC(=O)[C@H](C)NC(=O)[C@H](Cc2c[nH]cn2)NC1=O [N—Ac—CHAVC—NH2, N-Ac-Cys-His-Ala-Val-Cys-NH2]
- aggregation of vascular smooth muscle cells [3]: inhibits aggregation
- increase in apoptosis and cell death in aggregates ([3]; 24 hr, n=4, p<0.05): 2 fold
- E-cadherin staining and monolayer of A1N4 cells [1]: distribution of E-cadherin is non-contiguous; also recorded: reduced E-cadherin staining with a stitched appearance
- reduction of vascular smooth muscle cell migration ([4]; collagen): 56±5%
- reduction of vascular smooth muscle cell migration ([4]; glass): 53±8%
- inhibition of neurite outgrowth on 3T3 cells expressing N-CAM (N-CAM): did not inhibit neurite outgrowth
